The results in this text go back to publication PMC10514301 (Signal Transduction and Targeted Therapy, 2023).

Test [1] has as its system SARS-CoV-2 Omicron BA.1 variant. The test is described as follows: Antiviral activity against SARS-CoV-2 Omicron BA.1 in HEK293T-hACE2-TMPRSS2 cells (qRT-PCR). It is filed as cell-based. The following applies: Severe acute respiratory syndrome coronavirus 2, 24 h; read-out: EC50 mean ± sd, HEK293T-ACE2-T2, Omicron BA.1.
The test system is the same in test [2]. The test is described as follows: Antiviral activity against SARS-CoV-2 Omicron BA.1 in Vero E6 cells (qRT-PCR). The format is cell-based. On the technique in general: Real-time PCR tracks product formation cycle by cycle.
The test system of test [3] is SARS-CoV-2 Omicron BA.5 variant. The test is described as follows: Antiviral activity against SARS-CoV-2 Omicron BA.5 in HEK293T-hACE2-TMPRSS2 cells (qRT-PCR). The format is cell-based. The settings on record: Severe acute respiratory syndrome coronavirus 2, 24 h; read-out: EC50 mean ± sd, HEK293T-ACE2-T2, Omicron BA.5.
For test [4] the test system is unchanged. Put plainly: Antiviral activity against SARS-CoV-2 Omicron BA.5 in Vero E6 cells (qRT-PCR). It is filed as cell-based.
The test system of test [5] is SARS-CoV-2 Delta variant. The test is described as follows: Antiviral activity against SARS-CoV-2 Delta in HEK293T-hACE2-TMPRSS2 cells (qRT-PCR). The settings on record: Severe acute respiratory syndrome coronavirus 2, 24 h; read-out: EC50 mean ± sd, HEK293T-ACE2-T2, Delta. The format is cell-based.
The subject of test [6] is SARS-CoV-2 Delta variant. Put plainly: Antiviral activity against SARS-CoV-2 Delta in Vero E6 cells (viral RNA copies, qRT-PCR). It is filed as cell-based.
For test [7], the system named is SARS-CoV-2 Delta variant. It is filed as in vivo, K18-hACE2 mice.
Test [8] deals with SARS-CoV-2 variants (Delta, Omicron BA.1, and Omicron BA.5), HCoV-OC43, and HCoV-229E. Put plainly: organism not typed. The format is cell-based. The settings on record: read-out: half-maximal effective concentrations (EC50), range over HCoVs and cell lines.
The mark [9] stands for this setting: Severe acute respiratory syndrome coronavirus 2, Vero C1008, 24 h, read-out: EC50 mean ± sd, Vero E6, Omicron BA.1.
[10] abbreviates: Severe acute respiratory syndrome coronavirus 2, Vero C1008, 24 h, read-out: EC50 mean ± sd, Vero E6, Omicron BA.5.
[11] abbreviates: Severe acute respiratory syndrome coronavirus 2, Vero C1008, 24 h, read-out: EC50 mean ± sd, Vero E6, Delta.

`N#C[C@@]1(c2ccc3c(N)ncnn23)O[C@H](CO)[C@@H](O)[C@H]1O` [GS-441524]: the EC50 stood at 380 ± 40 nM in test [1]; 280 ± 11 nM in test [2] (setting [9]); 750 ± 64 nM in test [3]; 100 ± 11 nM in test [4] (setting [10]); 250 ± 140 nM in test [5]; 610 ± 79 nM in test [6] (setting [11]).

Consider `CC(C)(C)[C@H](NC(=O)C(F)(F)F)C(=O)N1C[C@H]2[C@@H]([C@H]1C(=O)N[C@H](C#N)C[C@@H]1CCNC1=O)C2(C)C` [Nirmatrelvir, nirmatrelvir], for which, in test [7] (initial days (day 2)), the “expression of IL-6 and CCL2 in the lungs” value was “reduction”. Also, the “reduction of lung viral loads compared to the vehicle group” value in test [7] (oral BID, […], VV116 50 and 100 mpk, nirmatrelvir 100 mpk with ritonavir 50 mpk, Combo = VV116 50 + nirmatrelvir 100 + ritonavir 50 mpk) is listed as 1–2 log.

Consider `CCC(CC)COC(=O)[C@H](C)N[P@](=O)(OC[C@H]1O[C@@](C#N)(c2ccc3c(N)ncnn23)[C@H](O)[C@@H]1O)Oc1ccccc1` [RDV, remdesivir], for which the EC50 amounted to 540 nM in test [2] (Severe acute respiratory syndrome coronavirus 2, Vero C1008, Vero E6 cells, read-out: EC50 against the SARS-CoV-2 Omicron BA.1 variant in Vero E6 cells); 130 nM in test [4] (Severe acute respiratory syndrome coronavirus 2, Vero C1008, Vero E6 cells, read-out: EC50 against Omicron BA.5); 2200 nM in test [6] (Severe acute respiratory syndrome coronavirus 2, Vero C1008, Vero E6 cells, read-out: EC50 against the SARS-CoV-2 Delta variant in Vero E6 cells).

Take `[2H]c1cc([C@]2(C#N)O[C@H](CO)[C@@H](O)[C@H]2O)n2ncnc(N)c12` [X1]: the EC50 in test [1] was 720 ± 24 nM; in test [2] (setting [9]), 300 ± 27 nM; in test [3], 450 ± 100 nM; in test [4] (setting [10]), 460 ± 4 nM; in test [8], 60 to 1100 nM; in test [5] it was 150 ± 37 nM. For the same compound, the EC50 in test [6] (setting [11]) came out at 830 ± 71 nM.
